For test [1], the system named is lipoxygenase pathway (5-HETE production in rat neutrophils). The test can be described thus: Protocol for Detecting Inhibitors of the Lipoxygenase Pathway (5-HETE production in rat neutrophils). Format: cell-based. Conditions: Neutrophil, 0.05 h, [14C]-arachidonic acid and Calcium Ionophore A23187, 3 minutes at 30° C., 5-HETE produced, read-out: I50. How it is done: The following protocol describes an assay to detect inhibitors of the lipoxygenase pathway. Such inhibitors are believed to be capable of modulating the biosynthesis of the leukotrienes, a property believed to be useful in treating asthma and inflammatory disease states.
Protocol for Detecting Inhibitors of the Lipoxygenase Pathway
A suspension of rat neutrophils in buffer is incubated for 3 minutes at 30° C. with [^14 C]-arachidonic acid (AA) and Calcium Ionophore A23187. Citric acid (2M) is used to quench the reaction. Following the addition of a trace amount of (^3 H)-5-HETE together with an excess of unlabeled 5-HETE to each tube, the mixture is extracted with chloroform/methanol. The organic layer is washed with dilute acid and an aliquot is transferred to glass tubes and dried. […] After adjusting for the extraction efficiency, the amount (pmole) of [^14 C]-5-HETE in each of the tubes is quantitated by substracting the net pmoles of 5-HETE in the tubes containing buffer alone (blank) from the pmoles of 5-HETE in the tubes containing […]. The ability of the test compounds to modulate the activity of this enzyme is determined by a decrease or increase in the net amount of 5-HETE produced.

Test [2] concerns leukotriene C4-induced contraction of guinea pig peripheral lung strips. Briefly: Protocol for SRS-A Antagonists: leukotriene C4-induced contraction of guinea pig peripheral lung strips. Conditions: 0.2 nM leukotriene C4, read-out: concentration required for 50% inhibition of 0.2 nM leukotriene C4-induced contraction. How it is done:
Leukotrienes, the products of the 5-lipoxygenase pathway of arachidonic acid metabolism, are potent contractile agents with a variety of smooth muscle preparations. […] The following protocol describes an in vitro assay used to test compounds which specifically antagonize the actions of leukotrienes.
Protocol for SRS-A (slow reacting substance of anaphylaxis) Antagonists
Peripheral strips of guinea pig lungs are prepared and hung in tissue baths (Metro #ME-5505, 10 ml) according to the published procedure--(Proc. Nat'l Acad. Sci., U.S.A. Volume 77, pp. 4354-4358, 1980). The strips are thoroughly rinsed in Assay Buffer and then connected with surgical silk thread to support rods from the tissue baths. The rods are adjusted in the baths and the strips connected to the pressure transducers (Grass FT 103 or Gould UC-3). The tissue baths are aerated with 95% oxygen--5% carbon dioxide and maintained at 37° C. The assay buffer has been made as follows: for each liter of buffer the following are added to approximately 800 ml of water distilled in glass-6.87 g NaCl, 0.4 g KCl, 2.1 g NaHCO3, 0.14 g NaH2 PO4.H2 O, 0.21 g MgSO4.7H2 O, and 2.0 g D-glucose. […]
Responses of each tissue to a pre-determined concentration of leukotriene are then obtained. […] The intrinsic activity of the compounds, and their effect on leukotriene-induced contractions are then recorded.

Test [3] deals with SRS-A component of anaphylactic bronchoconstriction. The test can be described thus: Bronchial Anaphylaxis in Guinea Pigs with Enhanced Leukotrienes (BAGEL). The format is in vivo, guinea pig. Conditions: 100 mg/kg, i.d., guinea pigs immunized with ovalbumin. How it is done:
Protocol for in vivo Testing of Modulators of SRS-A (slow reacting substances of anaphylaxis)
This test, known as the Bronchial Anaphylaxis in Guinea Pigs with Enhanced Leukotrienes (BAGEL), is based on the procedure published in Agents and Actions, Vol. II, pp. 396-401, 1981, and is performed with guinea pigs actively immunized (14 days) with ovalbumin (2.7 mg/kg, i.p.) and B. pertussis (5×10^9 organisms) as an adjuvant. Prior to challenge with antigen (ovalbumin), the animals are anesthetized and prepared for monitoring pulmonary dynamics by whole body plethysmography. They are treated with an H1 antihistamine (methapyrilene, 2 mg/kg, i.v.) and cyclooxygenase inhibitor (indomethacin; 20 mg/kg, i.p.) in order to enhance the SRS-A component of anaphylactic bronchoconstriction. Bronchoconstriction is quantified as the maximum increase in airway resistance following antigen challenge. The drug is administered either i.p. 10 minutes before challenge, or i.d. 15 minutes before challenge.

Take `COc1ccc(OCc2ccc3ccccc3n2)cc1` [2-(p-methoxyphenoxymethyl) quinoline, 2-(p-Methoxyphenoxymethyl) quinoline]: the IC50 turned out to be 700 nM in test [1] and 300 nM in test [2].
With `c1ccc(OCc2ccc3ccccc3n2)cc1` [2-Phenoxymethyl quinoline], the IC50 in test [1] was 500 nM; in test [2], 900 nM. In addition, the “activity in BAGEL test (bronchoconstriction following antigen challenge)” value in test [3] is “highly active”.

The record behind these values is US4631287A, “Aryl and heteroaryl ethers as agents for the treatment of hypersensitive ailments” (USV Pharmaceutical Corp., priority 1985, dated 1986).
